For this assay, the system named is LPS-induced IL-6 release level from THP-1 cells. Description: Test of IL-6 release from THP-1 cells (LPS-induced, IL-6 in supernatant detected by CBA). It counts as cell-based. The following applies: Homo sapiens; inflammatory factor IL-6 detected by CBA; compound 10 uM; LPS-stimulated THP-1 cells, supernatant after 24 hours; read-out: Inhibition rate @ 10 uM. An outline of the steps:
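THP-1 cells were treated with compound at final 30, 10, 3 and 1 uM, with dexamethasone 100 nM as reference, then stimulated with LPS. The LPS working solution was 800 ng/ml. After 24 h at 37 °C, IL-6 in the supernatant was measured by CBA.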

Some results are limits rather than exact numbers.

The term inhibition denotes how much of the control response was suppressed. In the case of `C=C1CCC2[C@]3(C)CO[C@@H](C4CCCC4)O[C@@H]3CC[C@@]2(C)[C@@H]1CCOc1cncc(OC)c1` (stereo partly drawn) [Compound 442, 3-(2-((3R,4aR,6aS,7R,10bR)-3-cyclopentyl-6a,10b-dimethyl-8-dihydromethylenedecahydro-1H-naphtho[2,1-d][1,3]dioxin-7-yl)ethoxy)-5-methoxypyridine], the inhibition at 10 µM was 30 to 60%.
In the case of `C=C1CCC2[C@]3(C)CO[C@@H](C4CCCC4)O[C@@H]3CC[C@@]2(C)[C@@H]1CCOC1CCN(S(=O)(=O)C2CC2)CC1` (stereo partly drawn) [Compound 484, 4-(2-((3R,4aR,6aS,7R,10bR)-3-cyclopentyl-6a,10b-dimethyl-8-dihydromethylene-decahydro-1H-naphtho[2,1-d][1,3]dioxin-7-yl)ethoxyl)-1-(cyclopropylsulfonyl)piperidine] it was > 60%; in that of `C=C1CCC2[C@]3(C)CO[C@@H](C4CCCC4)O[C@@H]3CC[C@@]2(C)[C@@H]1CCOCCCN(C)C` (stereo partly drawn) [Compound 281, 3-(2-((3R,4aR,6aS,7R,10bR)-3-cyclopentyl-6a,10b-dimethyl-8-dihydromethylenedecahydro-1H-naphtho[2,1-d][1,3]dioxin-7-yl)ethoxy)-N,N-dimethylpropan-1-amine], 30 to 60%.
`C=C1CCC2[C@]3(C)CO[C@@H](c4ccc(F)c(F)c4)O[C@@H]3CC[C@@]2(C)[C@@H]1CCN1C(=O)COC1=O` (stereo partly drawn) [Compound 215, 3-(2-((3R,4aR,6aS,7R,10bR)-3-(3,4-difluorophenyl)-6a, 10b-dimethyl-8-methylenedecahydro-1H-naphtho[2,1-d][1,3]dioxin-7-yl)ethyl)oxazolidine-2,4-dione]: the inhibition at 10 µM is < 30%.
`C=C1CCC2[C@]3(C)CO[C@@H](C4CCCC4)O[C@@H]3CC[C@@]2(C)[C@@H]1CCOc1cscc1C(=O)O` (stereo partly drawn) [Compound 453, 4-(2-((3R,4aR,6aS,7R,10bR)-3-cyclopentyl-6a,10b-dimethyl-8-dihydromethylenedecahydro-1H-naphtho[2,1-d][1,3]dioxin-7-yl)ethoxy)thiophene-3-carboxylic acid]: the inhibition at 10 µM is > 60%.
